Data as given in patent US10829520B2, “Beta-hairpin peptidomimetics” (POLYPHOR AG, priority 2015, dated 2020).
Where a SMILES comes first, the peptide text is derived from it. Bridges are numbered along the chain shown (N, C = ends). Roman numbers before positions name the chains, in order. [ ]: non-standard residue; d: D form. Tle = CC(C)(C)[C@H](N)C(=O)O; dDab = NCC[C@@H](N)C(=O)O; Nle = CCCC[C@H](N)C(=O)O; Orn = NCCC[C@H](N)C(=O)O; Dab = NCC[C@H](N)C(=O)O

Assays:
Format in all cases: cell-based
[1] = tested on: Klebsiella pneumoniae 968733; conditions: 968733
[2] = tested on: Acinetobacter baumannii DSM 30008; conditions: DSM 30008
How it was run: (§1)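 Peptide stocks (1 mg/mL, water) were diluted two-fold into MH-II broth with 0.002% P-80 and mixed with approx. 10^6 CFU/mL bacteria. Plates were read visually after 18-20 hours at 35° C, with MIC expressed in μg/mL per CLSI.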

[3] = tested on: Pseudomonas aeruginosa ATCC 27853; conditions: ATCC 27853
How it was run: as §1

[4] = tested on: Klebsiella pneumoniae SSI #3010; conditions: SSI #3010
How it was run: as §1

[5] = tested on: Escherichia coli ATCC 25922; conditions: ATCC 25922
How it was run: as §1

Escherichia coli 926415 = conditions: 926415
[6] = tested on: Acinetobacter baumannii 872842; conditions: 872842
[7] = tested on: human red blood cells (hRBC); assay: Hemolysis of human red blood cells; conditions: red cells of human, 1 h
How it was run: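 Each peptide was tested at a single concentration, 100 μg/mL. Erythrocytes (20% v/v) were incubated 1 h at 37° C. under shaking at 300 rpm, centrifuged, and released hemoglobin measured at OD540. Controls were PBS containing 0.001% acetic acid (0%) and Triton X-100 (100%).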

CCCC[C@@H]1NC(=O)[C@@H]2CCCN2C(=O)[C@H]2CCCN2C(=O)[C@H](CO)NC(=O)[C@H](C)NC(=O)[C@H](C(C)(C)C)NC(=O)[C@H](CCN)NC(=O)[C@H](Cc2c[nH]c3ccccc23)NC(=O)[C@H](CCN)NC(=O)[C@@H](CCC(=O)N[C@H](C(=O)N[C@@H](CCN)C(=O)N[C@H]2CCNC(=O)[C@H]([C@@H](C)O)NC(=O)[C@H](CCN)NC(=O)[C@H](CCN)NC(=O)[C@H](CC(C)C)NC(=O)[C@@H](Cc3ccccc3)NC(=O)[C@H](CCN)NC2=O)[C@@H](C)O)NC(=O)[C@H](CCCN)NC(=O)[C@H](CCN)NC(=O)[C@H](Cc2ccc(O)cc2)NC(=O)[C@H](CO)NC1=O [Ex. 5] (I: cyclo([Nle]SY[Dab][Orn][dE][Dab]W[Dab][Tle]AS[dP]P) / II: T[Dab][Dab][Dab][dF]L[Dab][Dab]T; amide I:6-II:N; lactam II:3-II:C)
Klebsiella pneumoniae 968733 MIC [1]: 2 µg/mL
Acinetobacter baumannii DSM 30008 MIC [2]: 0.5 µg/mL
Pseudomonas aeruginosa ATCC 27853 MIC [3]: 0.5 µg/mL
Klebsiella pneumoniae SSI #3010 MIC [4]: 0.5 µg/mL
Escherichia coli ATCC 25922 MIC [5]: 2 µg/mL
Escherichia coli 926415 MIC (Escherichia coli 926415): 0.5 µg/mL
Acinetobacter baumannii 872842 MIC [6]: 1 µg/mL
Hemolysis at 100 μg/mL [7]; 100: 1%

CCCC[C@@H]1NC(=O)[C@@H]2CCCN2C(=O)[C@H]2CCCN2C(=O)[C@H](CO)NC(=O)[C@H](C)NC(=O)[C@H](C(C)(C)C)NC(=O)[C@H](CCN)NC(=O)[C@H](Cc2c[nH]c3ccccc23)NC(=O)[C@H](CCN)NC(=O)[C@H](CCC(=O)N[C@H](C(=O)N[C@@H](CCN)C(=O)N[C@H]2CCNC(=O)[C@H]([C@@H](C)O)NC(=O)[C@H](CCN)NC(=O)[C@H](CCN)NC(=O)[C@H](CC(C)C)NC(=O)[C@@H](Cc3ccccc3)NC(=O)[C@H](CCN)NC2=O)[C@@H](C)O)NC(=O)[C@H](CCCN)NC(=O)[C@H](CCN)NC(=O)[C@H](Cc2ccc(O)cc2)NC(=O)[C@H](CO)NC1=O [Ex. 6] (I: cyclo([Nle]SY[Dab][Orn]E[Dab]W[Dab][Tle]AS[dP]P) / II: T[Dab][Dab][Dab][dF]L[Dab][Dab]T; amide I:6-II:N; lactam II:3-II:C)
Klebsiella pneumoniae 968733 MIC [1]: 2 µg/mL
Acinetobacter baumannii DSM 30008 MIC [2]: 2 µg/mL
Pseudomonas aeruginosa ATCC 27853 MIC [3]: 0.5 µg/mL
Klebsiella pneumoniae SSI #3010 MIC [4]: 0.5 µg/mL
Escherichia coli ATCC 25922 MIC [5]: 0.25 µg/mL
Escherichia coli 926415 MIC (Escherichia coli 926415): 1 µg/mL
Acinetobacter baumannii 872842 MIC [6]: 2 µg/mL
Hemolysis at 100 μg/mL [7]; 100: <1%

CCCC[C@@H]1NC(=O)[C@@H]2CCCN2C(=O)[C@H]2CCCN2C(=O)[C@H](CO)NC(=O)[C@H](C)NC(=O)[C@H](C(C)(C)C)NC(=O)[C@H](CCN)NC(=O)[C@H](Cc2c[nH]c3ccccc23)NC(=O)[C@H](CCN)NC(=O)[C@@H](CCN)NC(=O)[C@H](CCC(=O)N[C@@H](CCN)C(=O)N[C@H](C(=O)N[C@@H](CCN)C(=O)N[C@H]2CCNC(=O)[C@H]([C@@H](C)O)NC(=O)[C@H](CCN)NC(=O)[C@H](CCN)NC(=O)[C@H](CC(C)C)NC(=O)[C@@H](Cc3ccccc3)NC(=O)[C@H](CCN)NC2=O)[C@@H](C)O)NC(=O)[C@H](CCN)NC(=O)[C@H](Cc2ccc(O)cc2)NC(=O)[C@H](CO)NC1=O [Ex. 7] (I: cyclo(W[Dab][Tle]AS[dP]P[Nle]SY[Dab]E[dDab][Dab]) / II: [Dab]T[Dab][Dab][Dab][dF]L[Dab][Dab]T; amide I:12-II:N; lactam II:4-II:C)
Klebsiella pneumoniae 968733 MIC [1]: 2 µg/mL
Acinetobacter baumannii DSM 30008 MIC [2]: 1 µg/mL
Pseudomonas aeruginosa ATCC 27853 MIC [3]: 0.25 µg/mL
Klebsiella pneumoniae SSI #3010 MIC [4]: 0.25 µg/mL
Escherichia coli ATCC 25922 MIC [5]: 0.125 µg/mL
Escherichia coli 926415 MIC (Escherichia coli 926415): 0.25 µg/mL
Acinetobacter baumannii 872842 MIC [6]: 1 µg/mL
Hemolysis at 100 μg/mL [7]; 100: 1%

CC(C)C[C@@H]1NC(=O)[C@@H](Cc2ccccc2)NC(=O)[C@H](CCN)NC(=O)[C@@H](NC(=O)[C@H](CCN)NC(=O)[C@@H](NC(=O)[C@H](CCN)NC(=O)[C@H]2CC(=O)N[C@@H](CCN)C(=O)N[C@@H](Cc3c[nH]c4ccccc34)C(=O)N[C@@H](CCN)C(=O)N[C@@H](C(C)(C)C)C(=O)N[C@@H](C)C(=O)N[C@@H](CO)C(=O)N3CCC[C@@H]3C(=O)N3CCC[C@H]3C(=O)N[C@@H](C(C)C)C(=O)N[C@@H](CO)C(=O)N[C@@H](Cc3ccc(O)cc3)C(=O)N[C@@H](CCN)C(=O)N[C@@H](CCCN)C(=O)N2)[C@@H](C)O)CCNC(=O)[C@H]([C@@H](C)O)NC(=O)[C@H](CCN)NC(=O)[C@H](CCN)NC1=O [Ex. 8] ([Dab]W[Dab][Tle]AS[dP]PVSY[Dab][Orn][dD][Dab]T[Dab][Dab][Dab][dF]L[Dab][Dab]T; lactam 18-C, N-14)
Klebsiella pneumoniae 968733 MIC [1]: 2 µg/mL
Acinetobacter baumannii DSM 30008 MIC [2]: 0.5 µg/mL
Pseudomonas aeruginosa ATCC 27853 MIC [3]: 0.25 µg/mL
Klebsiella pneumoniae SSI #3010 MIC [4]: 0.25 µg/mL
Escherichia coli ATCC 25922 MIC [5]: 0.25 µg/mL
Escherichia coli 926415 MIC (Escherichia coli 926415): 1 µg/mL
Acinetobacter baumannii 872842 MIC [6]: 0.5 µg/mL
Hemolysis at 100 μg/mL [7]; 100: 1%

CCCC[C@@H]1NC(=O)[C@@H]2CCCN2C(=O)[C@H]2CCCN2C(=O)[C@H](CO)NC(=O)[C@H](C)NC(=O)[C@H](C(C)(C)C)NC(=O)[C@H](CCN)NC(=O)[C@H](Cc2c[nH]c3ccccc23)NC(=O)[C@H](CCN)NC(=O)[C@@H](CCC(=O)N[C@@H](CCN)C(=O)N[C@H](C(=O)N[C@@H](CCN)C(=O)N[C@H]2CCNC(=O)[C@H]([C@@H](C)O)NC(=O)[C@H](CCN)NC(=O)[C@H](CCN)NC(=O)[C@H](CC(C)C)NC(=O)[C@@H](Cc3ccccc3)NC(=O)[C@H](CCN)NC2=O)[C@@H](C)O)NC(=O)[C@H](CCCN)NC(=O)[C@H](CCN)NC(=O)[C@H](Cc2ccc(O)cc2)NC(=O)[C@H](CO)NC1=O [Ex. 9] (I: cyclo([Nle]SY[Dab][Orn][dE][Dab]W[Dab][Tle]AS[dP]P) / II: [Dab]T[Dab][Dab][Dab][dF]L[Dab][Dab]T; amide I:6-II:N; lactam II:4-II:C)
Klebsiella pneumoniae 968733 MIC [1]: 2 µg/mL
Acinetobacter baumannii DSM 30008 MIC [2]: 0.25 µg/mL
Pseudomonas aeruginosa ATCC 27853 MIC [3]: 0.5 µg/mL
Klebsiella pneumoniae SSI #3010 MIC [4]: 0.5 µg/mL
Escherichia coli ATCC 25922 MIC [5]: 0.25 µg/mL
Escherichia coli 926415 MIC (Escherichia coli 926415): 1 µg/mL
Acinetobacter baumannii 872842 MIC [6]: 2 µg/mL
Hemolysis at 100 μg/mL [7]; 100: 1%

CCCC[C@@H]1NC(=O)[C@@H]2CCCN2C(=O)[C@H]2CCCN2C(=O)[C@H](CO)NC(=O)[C@H](C)NC(=O)[C@H](C(C)(C)C)NC(=O)[C@H](CCN)NC(=O)[C@H](Cc2c[nH]c3ccccc23)NC(=O)[C@H](CCC(=O)N[C@@H](CCN)C(=O)N[C@H](C(=O)N[C@@H](CCN)C(=O)N[C@H]2CCNC(=O)[C@H]([C@@H](C)O)NC(=O)[C@H](CCN)NC(=O)[C@H](CCN)NC(=O)[C@H](CC(C)C)NC(=O)[C@@H](Cc3ccccc3)NC(=O)[C@H](CCN)NC2=O)[C@@H](C)O)NC(=O)[C@@H](CCN)NC(=O)[C@H](CCCN)NC(=O)[C@H](CCN)NC(=O)[C@H](Cc2ccc(O)cc2)NC(=O)[C@H](CO)NC1=O [Ex. 10] (I: cyclo([Nle]SY[Dab][Orn][dDab]EW[Dab][Tle]AS[dP]P) / II: [Dab]T[Dab][Dab][Dab][dF]L[Dab][Dab]T; amide I:7-II:N; lactam II:4-II:C)
Klebsiella pneumoniae 968733 MIC [1]: 2 µg/mL
Acinetobacter baumannii DSM 30008 MIC [2]: 1 µg/mL
Pseudomonas aeruginosa ATCC 27853 MIC [3]: 0.5 µg/mL
Klebsiella pneumoniae SSI #3010 MIC [4]: 0.25 µg/mL
Escherichia coli ATCC 25922 MIC [5]: 0.125 µg/mL
Escherichia coli 926415 MIC (Escherichia coli 926415): 0.5 µg/mL
Acinetobacter baumannii 872842 MIC [6]: 1 µg/mL
Hemolysis at 100 μg/mL [7]; 100: 1%

CCCC[C@@H]1NC(=O)[C@@H]2CCCN2C(=O)[C@H]2CCCN2C(=O)[C@H](CO)NC(=O)[C@H](C)NC(=O)[C@H](C(C)(C)C)NC(=O)[C@@H](NC(=O)[C@H](Cc2c[nH]c3ccccc23)NC(C)=O)CSSC[C@@H](C(=O)N[C@@H](CCN)C(=O)N[C@H](C(=O)N[C@@H](CCN)C(=O)N[C@H]2CCNC(=O)[C@H]([C@@H](C)O)NC(=O)[C@H](CCN)NC(=O)[C@H](CCN)NC(=O)[C@H](CC(C)C)NC(=O)[C@@H](Cc3ccccc3)NC(=O)[C@H](CCN)NC2=O)[C@@H](C)O)NC(=O)[C@H](Cc2ccc(O)cc2)NC(=O)[C@H](CO)NC1=O [Ex. 12] (Ac-WC[Tle]AS[dP]P[Nle]SYC[Dab]T[Dab][Dab][Dab][dF]L[Dab][Dab]T; disulfide 2-11; lactam 15-C)
Klebsiella pneumoniae 968733 MIC [1]: 0.5 µg/mL
Acinetobacter baumannii DSM 30008 MIC [2]: 0.0625 µg/mL
Pseudomonas aeruginosa ATCC 27853 MIC [3]: 0.5 µg/mL
Klebsiella pneumoniae SSI #3010 MIC [4]: 0.125 µg/mL
Escherichia coli ATCC 25922 MIC [5]: 0.125 µg/mL
Escherichia coli 926415 MIC (Escherichia coli 926415): 0.125 µg/mL
Acinetobacter baumannii 872842 MIC [6]: 0.125 µg/mL
Hemolysis at 100 μg/mL ([7]; 100 μg/mL): <1%
